Changes are numbered by the printed parent chain. Entries after “also recorded” stand apart in the source; their conditions may differ.
Columns and labels:
CocE [1] = target: T1, CocE (Rhodococcus sp., UniProt Q9L9D7); assay type: biochemical, Rhodococcus sp. MB 1
T1 construct: 6xHis (C); made in house; host or cells: E. coli BL-21 Gold (DE3), pET-22b(+)
T1 sequence (Q9L9D7 1-574): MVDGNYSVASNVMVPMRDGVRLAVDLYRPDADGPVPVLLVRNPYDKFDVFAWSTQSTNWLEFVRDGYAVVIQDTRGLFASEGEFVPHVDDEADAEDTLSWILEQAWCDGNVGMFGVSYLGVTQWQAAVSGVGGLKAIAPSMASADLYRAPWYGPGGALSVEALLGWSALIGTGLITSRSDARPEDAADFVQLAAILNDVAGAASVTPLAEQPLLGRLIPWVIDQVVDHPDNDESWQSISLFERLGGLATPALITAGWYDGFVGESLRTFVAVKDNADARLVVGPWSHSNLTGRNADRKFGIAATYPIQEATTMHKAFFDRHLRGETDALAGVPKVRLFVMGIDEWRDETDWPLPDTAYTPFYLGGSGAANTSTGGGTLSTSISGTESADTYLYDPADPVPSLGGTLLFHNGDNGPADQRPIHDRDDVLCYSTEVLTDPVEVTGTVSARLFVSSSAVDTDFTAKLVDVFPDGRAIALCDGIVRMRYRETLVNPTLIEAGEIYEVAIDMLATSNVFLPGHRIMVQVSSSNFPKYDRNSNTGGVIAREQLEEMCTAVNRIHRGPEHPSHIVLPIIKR
Description: (§1) Analysis of CocE action on cocaine cleavage is performed by utilizing the spectroscopic properties of cocaine, which maximally absorbs light at a 240 nm wavelength. CocE activity is measured by monitoring for a decrease in signal at A240, using various concentrations of cocaine, and determining the initial rate of the decrease. From these values the Vmax of the enzyme can be determined. By pre-incubating the enzyme at 37° C. for various times before monitoring for activity, the half life of CocE at 37° C. can be calculated.
(§2) The initial rates (of decay) were determined by following the change in the intrinsic absorbance of cocaine at 240 nm (6700 M^1 cm^1)(Xie et al., 1999) using a SpectraMax Plus 384 UV plate reader (Molecular Devices, Sunnyvale, Calif.) using SOFTmax Pro software (Version 3.1.2). The reaction was initiated by adding 100 μL of a 2× enzyme solution (100 mM phosphate buffer, pH 7.4 and 300 mM NaCl) to 100 μL of a 2× cocaine solution (50 μg/mL enzyme, 100 mM Phosphate Buffer, pH 7.4 and 300 mM NaCl). All assays were performed with 100 μM DTT unless indicated otherwise. Final cocaine concentrations were as follows: 125, 62.5, 31.25, 15.63, 7.81, 3.91, 1.95, and 0.977 μM. Vmax and Km values were calculated using Prism (GraphPad Software, San Diego). For stability measurements, wild type and mutant enzymes were diluted to 2× concentration and incubated at 37° C. for the times indicated. At the end of each time point, an aliquot was removed and kinetic behavior was observed as outlined above.
(§3) In vitro kinetic assays. […] Initial rates were then used to determine Michaelis-Menten parameters. To assess thermal stability, enzyme preparations were preincubated at 37° C. for various lengths of time, prior to measurement of residual activities (Table 1 and FIG. 23).

CocE [2] = target: T1, CocE; experiment: Effect of DTT on decay of CocE activity at 37° C.; assay type: biochemical, Rhodococcus sp. MB 1; details: DTT 10 mM
Description: as §3

WT CocE = target: T2, WT CocE (Rhodococcus sp., UniProt Q9L9D7)
T2 sequence (Q9L9D7 1-574): T1 sequence (Q9L9D7 1-574)
Description: Further characterization of the stability of wild type (WT) CocE and thermostable mutants was performed through circular dichroism, which detects small changes in protein conformation and structure. Analysis by repeated CD measurements at increasing temperatures allows analysis of the thermodynamics and melting temperature (TM) of the protein, so long as the melting is reversible (i.e. the protein resumes it's original conformation upon cooling). […] However CD is still of value in determining the temperature to unfolding.

CocE mutant L169K = target: T3, CocE mutant L169K (Rhodococcus sp., UniProt Q9L9D7, L169K); experiment: Circular dichroism melting of L169K in the presence of phenylboronic acid; assay type: physicochemical, Rhodococcus sp. MB 1
T3 construct: 6xHis (C); made in house; host or cells: E. coli BL-21 Gold (DE3), pET-22b(+)
T3 sequence (Q9L9D7 1-574 L169K): T1 sequence (Q9L9D7 1-574) with L169K
Description: CD analysis of another CocE mutant, L169K, established a ˜65° C. melting temperature alone, and ˜85° C. melting temperature in the presence of phenylboronic acid (FIG. 18), i.e. phenylboronic acid conferred an additional 20° C. melting to the already high original melting temperature for L169K.

CocE WT = target: T4, CocE WT (Rhodococcus sp., UniProt Q9L9D7); experiment: Inhibition of CocE WT aggregate formation, non-denaturing gel, 1 hour at 37° C.; design: species or system Rhodococcus sp. MB 1; details: read-out: 50% stabilization concentration
T4 construct: 6xHis (C); made in house; host or cells: E. coli BL-21 Gold (DE3), pET-22b(+)
T4 sequence (Q9L9D7 1-574): T1 sequence (Q9L9D7 1-574)
From the text: To further study CocE stabilization with small molecules, other inhibitors of the CocE cleavage reaction were considered.

[3] = 37° C., absence of DTT
Description: as §1
as §2, with “Final cocaine concentrations were as follows: 125, 62.5, 31.25, 15.63, 7.81, 3.91, 1.95, and 0.977 μM. Vmax and Km values were calculated using Prism (GraphPad Software, San Diego).” left out
as §3

[4] = Michaelis-Menten kinetics of cocaine hydrolysis (absorbance at 240 nm); assay type: biochemical; details: cocaine
Description: as §2, §3
Determination of Catalytic Efficiency. To determine the catalytic activity a spectrophometric assay was performed. Samples of L169K/G173Q CocE were added to a 96-well UV permeable plate containing increasing cocaine concentrations (0.5, 2.5, 5, 12.5, 25, 50, 100, and 150 μM) to give a final concentration of 10 ng/ml CocE in a final volume of 200 μl. The change in absorbance at 240 nm was measured over 20 minutes, with readings every 10 seconds, by a SpectraMax Plus 384 UV plate reader (Molecular Devices, Sunnyvale, Calif.) using SOFTmax Pro software (Version 3.1.2). The change in absorbance was converted to the change in concentration and furthermore the rate of decay per mole enzyme is determined (Kcat). Kcat and Km of the enzyme are determined using Prism (GraphPad software, San Diego).

[5] = Temperature-dependent decay in esterase activity (30 min pre-incubation); assay type: biochemical
Description: FIG. 26 is a graph showing temperature-dependent decay in esterase activity. 50 ng/ml wild-type CocE and the mutants were pre-incubated for 30 min at temperatures indicated (° C.) and activity measured (Xie et al., 1999). The activity of each mutant remaining (as a percentage of the maximal activity, Vmax, without preincubation) following pre-incubation are illustrated. Wild-type CocE (open bars) appears to inactivate between 30-35° C. whereas T172R/G173Q (shaded bars) and L169K (solid) both display enhance thermal stability (inactivation at 40-45° C.).
To test whether the improved enzymatic stability at 37° C. represents improved thermal stability of the protein fold, the capacity of the CocE at progressively higher temperatures were assessed (FIG. 26). The activity of wt CocE plummets precipitously after 30 min at approximately 30-35° C. Both L169K and T172R/G173Q each are inactivated at a higher temperature (40-45° C.). Circular dichroism analysis (near UV analysis) at varying temperatures, comparing wt-CocE and T172R/G173Q have melting temperatures in concordance with the loss of catalytic activity.

[6] = Circular dichroism melting temperature of CocE proteins alone; assay type: physicochemical; details: circular dichroism, enzyme alone
[7] = test system: cocaine-induced lethality; experiment: In vivo potency of protection against cocaine-induced lethality; design: species or system NIH-Swiss mice; details: i.v. pretreatment 1 min prior to i.p. cocaine
[8] = test system: cocaine-induced lethality; experiment: In vivo duration of protection against cocaine-induced lethality; design: species or system NIH-Swiss mice; details: 1 mg i.v.; cocaine 180 mg/kg i.p.
Description: In vivo protection against cocaine lethality. Male NIH-Swiss mice (25-32 g) were obtained from Harlan Inc. (Indianapolis, Ind.) and were housed in groups of 6 mice per cage. All mice were allowed ad libitum access to food and water, and were maintained on a 12-h light-dark cycle with lights on at 06.30 AM in a room kept at a temperature of 21-22° C. Experiments were performed in accordance with the Guide for the Care and Use of Laboratory Animals as adopted and promulgated by the National Institutes of Health. The experimental protocols were approved by the University Committee on the Use and Care of Animals at the University of Michigan.
Cocaine-induced toxicity was characterized by the occurrence of lethality, as defined by the cessation of observed movement and respiration. Mice were placed individually in Plexiglas observation chambers (16×28×20 cm high) to be habituated for 15 min before drug administration. Following intra-peritoneal (i.p.) cocaine administration, the mouse was immediately placed individually in the same chamber for observation. The presence or absence of lethality was recorded for 60 min following cocaine administration. The mouse was placed in a small restraint chamber (Outer tube diameter: 30 mm; Inner tube diameter: 24 mm) that left the tail exposed. The tail was cleansed with an alcohol wipe and a 30G1/2 precision glide needle (Fisher Scientific, Pittsburgh, Pa.) was inserted into one of the side veins for infusion. The i.v. injection volume of CocE or CocE mutant was 0.2 mL per mouse. Sterile gauze and pressure were applied to the injection site to staunch the bleeding.
Lethality was monitored following injection at 1, 5, 10, or 30 min, or 1, 2, 3, 4, 5 hours after enzyme administration. Each treatment used 8 mice to assess the percent of lethality (i.e., protection) in mice pretreated with a single dose of an esterase at a single time point.
These values were used to compare the degree of rightward shifts of cocaine's dose-response curve in the absence or presence of the enzyme pretreatment. In the time course study, a time point for duration of protection (i.e., 50% of lethality) was estimated by using each time course curve crossing 50% occurrence of lethality.
Evaluation of in vivo half life. CocE is administered IV to the tail vein in a volume of 0.2 ml. Animals are challenged with 180 mg/kg cocaine delivered intraperitoneally at a given time after CocE administration.

[9] = mouse, in vivo; cited from earlier work

O[C@@H](CS)[C@@H](O)CS [DTT]
Ki (CocE [1]; cocaine hydrolysis, mixed competitive and non-competitive): ~380 µM | IC50 (CocE [1]; wt-CocE): ~390 µM | effect on decay / τinact of wt-CocE (CocE [2]): shortens; also recorded: accelerate the decay

OB(O)c1ccccc1 [Phenylboronic acid, phenylboronic acid]
melting temperature higher than the T172R mutant (WT CocE; WT CocE with compound): more than 30 degrees | melting temperature of WT CocE in presence of compound (WT CocE; excess benzoic acid, 5× molarity phenylboronic acid, 6031818): 73 °C | additional melting conferred to L169K (CocE mutant L169K): 20 °C | melting temperature of L169K in presence of compound (CocE mutant L169K): ~85 °C | EC50 (CocE WT): ~0.2 µM

B1: wt-CocE: cocaine esterase of Rhodococcus sp. MB 1, SEQ ID NO:1 (protein, listed as Rhodococcus sp.)
chain: T1 sequence (Q9L9D7 1-574)
half-time of inactivation, τinact [3]: approximately 25 min | Kcat(mol · s^−1 · mol^−1) [4]: 2323 mol · s^−1 · mol^−1 | temperature of inactivation [5]: 30-35 °C | melting temperature [6]: approximately 39 °C | protection against cocaine-induced lethality [7]: protected | LT50, pretreatment time to 50% lethality [8]: approximately 14 min | effective half-life in the blood stream [9]: ~10 min

Source: patent publication US9526786B2, “Thermostabilization of proteins” (The Trustee of Columbia University in the City of New York, priority 2007, dated 2016)
